This note sets out measurements from US6479651B1, “Modified oligonucleotides, their preparation and their use” (Aventis Pharma Deutschland GmbH, priority 1994, dated 2002).

Structures are written as SMILES.

Turning to `O=C(Nc1ncnc2c1c(Cl)cn2[C@H]1C[C@H](O)[C@@H](CO)O1)c1ccccc1` [Compound 4, 4-Benzoylamino-5-chloro-7-(2-deoxy-β-D-erythropentofuranosyl)-7H-pyrrolo[2,3-d]pyrimidine], the melting point turned out to be 190 °C.
Consider `O=C(Nc1ncnc2c1c(Br)cn2[C@H]1C[C@H](O)[C@@H](CO)O1)c1ccccc1` [Compound 5, 4-Benzoylamino-5-bromo-7-(2-deoxy-β-D-erythropentofuranosyl)-7H-pyrrolo[2,3-d]pyrimidine], for which the melting point was 198 °C.
`Cc1cn([C@H]2C[C@H](O)[C@@H](CO)O2)c2ncnc(NC(=O)c3ccccc3)c12` [Compound 6, 4-Benzoylamino-7-(2-deoxy-β-D-erythropentofuranosyl)-5-methyl-7H-pyrrolo[2,3-d]pyrimidine] displayed a melting point of 196 °C.
Take `Nc1ncnc2c1c(I)cn2[C@H]1C[C@H](O)[C@@H](CO)O1` [Compound 14, 4-Amino-7-(2-deoxy-β-D-erythropentofuranosyl)-5-iodo-7H-pyrrolo [2,3-d]pyrimidine]: the melting point stood at 194 °C.
For `COc1nc(NC=O)nc2c1c(Cl)c(Cl)n2[C@H]1C[C@H](OC(=O)C(C)C)[C@@H](COC(=O)C(C)C)O1` [Compound 49, 7-[2-Deoxy-3,5-di-O-(2-methylpropionyl)-β-D-erythropentofuranosyl]-5,6-dichloro-2-[(formyl)amino]-4-methoxy-7H-pyrrolo[2,3-d]pyrimidine], the melting point lay in the range of 127 to 128 °C.
The same measure for `Nc1nc2c(c(I)cn2[C@H]2C[C@H](O)[C@@H](CO)O2)c(=O)[nH]1` [Compound 58, 2-Amino-7-(2-deoxy-β-D-erythropentofuranosyl)-5-iodo-3,7-dihydro-4H-pyrrolo[2,3-d]pyrimidin-4-one]: 218 to 220 °C.

One may read the melting point as the temperature, or range, at which the solid turns liquid.
